“And” between values parts separate entries of the source, which are not always exact repeats. Identical values can stand only once. The source made the active and inactive calls.
What was measured:
Insulin-degrading enzyme = molecular target: T1, Insulin-degrading enzyme (Homo sapiens, UniProt P14735); test: Dose Response: Fluorescence polarization-based cell-based high throughput dose response assay for inhibitors of insulin-degrading enzyme (IDE). [Related pubchem assays: 434962 (Primary screen (IDE inhibitors in singlicate)), 449730 (Counterscreen (Cytotoxicity in triplicate)), 435028 (Confirmation (IDE inhibitors in triplicate)), 434984 (Summary …; type: functional
T1 sequence (P14735 whole entry): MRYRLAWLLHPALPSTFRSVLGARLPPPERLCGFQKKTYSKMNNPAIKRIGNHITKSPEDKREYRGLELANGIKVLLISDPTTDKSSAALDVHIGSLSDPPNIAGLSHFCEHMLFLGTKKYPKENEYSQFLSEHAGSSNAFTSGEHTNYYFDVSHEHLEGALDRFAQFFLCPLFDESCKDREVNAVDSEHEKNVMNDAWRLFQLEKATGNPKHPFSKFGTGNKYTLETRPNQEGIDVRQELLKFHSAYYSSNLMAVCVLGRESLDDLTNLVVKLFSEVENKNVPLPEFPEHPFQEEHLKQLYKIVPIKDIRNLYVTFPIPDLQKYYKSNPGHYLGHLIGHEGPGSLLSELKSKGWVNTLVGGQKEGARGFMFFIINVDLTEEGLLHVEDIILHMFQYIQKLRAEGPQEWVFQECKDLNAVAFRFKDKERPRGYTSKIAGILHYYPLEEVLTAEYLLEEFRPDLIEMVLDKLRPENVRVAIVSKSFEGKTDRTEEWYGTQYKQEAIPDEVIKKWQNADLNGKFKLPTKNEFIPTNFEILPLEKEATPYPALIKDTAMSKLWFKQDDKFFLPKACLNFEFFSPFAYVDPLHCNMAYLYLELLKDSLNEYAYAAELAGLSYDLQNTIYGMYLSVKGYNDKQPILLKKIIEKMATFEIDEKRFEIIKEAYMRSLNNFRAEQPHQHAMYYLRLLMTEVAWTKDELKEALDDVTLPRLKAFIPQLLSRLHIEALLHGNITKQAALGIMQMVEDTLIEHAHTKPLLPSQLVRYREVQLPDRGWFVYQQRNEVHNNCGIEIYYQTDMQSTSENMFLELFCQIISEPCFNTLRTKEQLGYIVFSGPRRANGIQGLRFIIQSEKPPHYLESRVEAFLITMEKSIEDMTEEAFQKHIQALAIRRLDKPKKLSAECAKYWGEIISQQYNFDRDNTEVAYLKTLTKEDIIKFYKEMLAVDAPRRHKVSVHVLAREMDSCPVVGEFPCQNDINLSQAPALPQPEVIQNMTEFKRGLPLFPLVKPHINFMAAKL

[1] = Counterscreen for IDE inhibitors: Luminescence-based cell-based high throughput dose response assay to identify compounds that are cytotoxic to HEK cells. [Related pubchem assays: 434962 (Primary screen (IDE inhibitors in singlicate)), 449730 (Counterscreen (Cytotoxicity in triplicate)), 435028 (Confirmation (IDE inhibitors in triplicate)) …; type: functional; conditions: HEK293
[2] = A Cell Based Secondary Assay To Explore Cytotoxicity of Compounds that Sensitize Mycobacterium Tuberculosis to Beta-Lactam Antibiotics.; type: functional
Cytochrome P450 2D6 = Cytochrome P450 2D6 (Homo sapiens, UniProt P10635); test: qHTS Assay for Inhibitors and Substrates of Cytochrome P450 2D6. [Related pubchem assays: 410 ]; type: ADME; conditions: read-out: Potency
[3] = molecular target: Serine/threonine-protein phosphatase PP1-alpha catalytic subunit (Homo sapiens, UniProt P62136); test: inhibition of protein phosphatase 1 activity – biochemical, fluorescence, dose response (AID 2403);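 further: phosphatase turnover of OMFP into fluorescent 3-O-methylfluorescein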
Chain of Serine/threonine-protein phosphatase PP1-alpha catalytic subunit (P62136 whole entry): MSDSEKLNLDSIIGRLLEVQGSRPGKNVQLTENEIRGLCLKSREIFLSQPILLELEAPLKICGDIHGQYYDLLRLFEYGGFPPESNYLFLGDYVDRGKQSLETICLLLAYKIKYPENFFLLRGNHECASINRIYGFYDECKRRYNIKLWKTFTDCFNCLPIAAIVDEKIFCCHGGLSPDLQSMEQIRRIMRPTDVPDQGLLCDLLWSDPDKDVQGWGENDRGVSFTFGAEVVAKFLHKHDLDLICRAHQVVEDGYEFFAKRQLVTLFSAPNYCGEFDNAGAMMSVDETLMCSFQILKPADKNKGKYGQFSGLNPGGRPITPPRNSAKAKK

[4] = molecular target: T2, Serine/threonine-protein phosphatase (Homo sapiens, UniProt Q9BPW0); test: Counterscreen for inhibitors of PP1: fluorescence-based biochemical high throughput dose response assay to identify inhibitors of Protein Phosphatase 5 (PP5). [Related pubchem assays: 2034 (Summary (PP5 inhibitors)), 1987 (PP5 inhibitors in singlate), 2235 (PP1 inhibitors in singlate)]
T2 sequence (Q9BPW0 whole entry): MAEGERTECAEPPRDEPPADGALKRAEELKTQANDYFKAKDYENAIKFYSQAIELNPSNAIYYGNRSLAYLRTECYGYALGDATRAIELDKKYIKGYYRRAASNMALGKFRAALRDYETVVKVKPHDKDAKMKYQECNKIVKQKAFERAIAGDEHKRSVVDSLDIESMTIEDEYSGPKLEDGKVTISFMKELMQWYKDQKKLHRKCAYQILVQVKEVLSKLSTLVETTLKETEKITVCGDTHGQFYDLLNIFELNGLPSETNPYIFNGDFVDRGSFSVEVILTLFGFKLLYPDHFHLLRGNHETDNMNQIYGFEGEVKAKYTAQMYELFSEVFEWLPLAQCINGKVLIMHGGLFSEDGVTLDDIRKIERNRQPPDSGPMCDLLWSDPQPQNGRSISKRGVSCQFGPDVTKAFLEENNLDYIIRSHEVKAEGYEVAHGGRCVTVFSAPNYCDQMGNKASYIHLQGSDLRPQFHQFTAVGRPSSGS

INS1 = test: INS-1E survival protection against cytokine death – cell-based, luminescence, retest, dose response (AID 449756); type: functional; conditions: Rattus norvegicus;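 further: cell death triggered by IL-1 beta plus TNF-alpha plus IFN-gamma mixture; protective hits raise ATP signal compared with cytokine alone wells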
Aspartyl aminopeptidase = Aspartyl aminopeptidase (Plasmodium falciparum 3D7, UniProt Q8I2J3)
Procathepsin L = Procathepsin L (Homo sapiens, UniProt P07711)
Chain of Procathepsin L (P07711 whole entry): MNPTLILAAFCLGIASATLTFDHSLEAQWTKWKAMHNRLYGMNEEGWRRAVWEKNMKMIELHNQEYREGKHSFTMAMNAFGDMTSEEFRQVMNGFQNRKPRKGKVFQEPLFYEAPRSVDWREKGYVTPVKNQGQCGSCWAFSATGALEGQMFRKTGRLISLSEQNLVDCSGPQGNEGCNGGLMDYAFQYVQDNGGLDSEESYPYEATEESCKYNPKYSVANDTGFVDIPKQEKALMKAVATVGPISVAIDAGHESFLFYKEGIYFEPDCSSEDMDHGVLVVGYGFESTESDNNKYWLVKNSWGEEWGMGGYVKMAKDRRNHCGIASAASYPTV

[5] = molecular target: G-protein coupled receptor 55 (Homo sapiens, UniProt Q9Y2T6); test: inhibition of LPI-stimulated GPR55 beta-arrestin translocation – imaging, U2OS, beta-arrestin-GFP, LPI agonist, primary screen (AID 2013); type: functional;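 further: antagonist potency measured as reduced agonist-driven arrestin aggregation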
[6] = molecular target: Induced myeloid leukemia cell differentiation protein Mcl-1 (Homo sapiens, UniProt Q07820); type: functional
[7] = microbe, parasite or virus in culture; type: functional; conditions: Mycobacterium tuberculosis
[8] = molecular target: T3, Voltage-gated N-type calcium channel alpha-1B subunit/Amyloid beta A4 precursor protein-binding family A member 1 (Homo sapiens, UniProt Q00975+Q02410); type: protein assay
T3 sequence (Q00975 whole entry): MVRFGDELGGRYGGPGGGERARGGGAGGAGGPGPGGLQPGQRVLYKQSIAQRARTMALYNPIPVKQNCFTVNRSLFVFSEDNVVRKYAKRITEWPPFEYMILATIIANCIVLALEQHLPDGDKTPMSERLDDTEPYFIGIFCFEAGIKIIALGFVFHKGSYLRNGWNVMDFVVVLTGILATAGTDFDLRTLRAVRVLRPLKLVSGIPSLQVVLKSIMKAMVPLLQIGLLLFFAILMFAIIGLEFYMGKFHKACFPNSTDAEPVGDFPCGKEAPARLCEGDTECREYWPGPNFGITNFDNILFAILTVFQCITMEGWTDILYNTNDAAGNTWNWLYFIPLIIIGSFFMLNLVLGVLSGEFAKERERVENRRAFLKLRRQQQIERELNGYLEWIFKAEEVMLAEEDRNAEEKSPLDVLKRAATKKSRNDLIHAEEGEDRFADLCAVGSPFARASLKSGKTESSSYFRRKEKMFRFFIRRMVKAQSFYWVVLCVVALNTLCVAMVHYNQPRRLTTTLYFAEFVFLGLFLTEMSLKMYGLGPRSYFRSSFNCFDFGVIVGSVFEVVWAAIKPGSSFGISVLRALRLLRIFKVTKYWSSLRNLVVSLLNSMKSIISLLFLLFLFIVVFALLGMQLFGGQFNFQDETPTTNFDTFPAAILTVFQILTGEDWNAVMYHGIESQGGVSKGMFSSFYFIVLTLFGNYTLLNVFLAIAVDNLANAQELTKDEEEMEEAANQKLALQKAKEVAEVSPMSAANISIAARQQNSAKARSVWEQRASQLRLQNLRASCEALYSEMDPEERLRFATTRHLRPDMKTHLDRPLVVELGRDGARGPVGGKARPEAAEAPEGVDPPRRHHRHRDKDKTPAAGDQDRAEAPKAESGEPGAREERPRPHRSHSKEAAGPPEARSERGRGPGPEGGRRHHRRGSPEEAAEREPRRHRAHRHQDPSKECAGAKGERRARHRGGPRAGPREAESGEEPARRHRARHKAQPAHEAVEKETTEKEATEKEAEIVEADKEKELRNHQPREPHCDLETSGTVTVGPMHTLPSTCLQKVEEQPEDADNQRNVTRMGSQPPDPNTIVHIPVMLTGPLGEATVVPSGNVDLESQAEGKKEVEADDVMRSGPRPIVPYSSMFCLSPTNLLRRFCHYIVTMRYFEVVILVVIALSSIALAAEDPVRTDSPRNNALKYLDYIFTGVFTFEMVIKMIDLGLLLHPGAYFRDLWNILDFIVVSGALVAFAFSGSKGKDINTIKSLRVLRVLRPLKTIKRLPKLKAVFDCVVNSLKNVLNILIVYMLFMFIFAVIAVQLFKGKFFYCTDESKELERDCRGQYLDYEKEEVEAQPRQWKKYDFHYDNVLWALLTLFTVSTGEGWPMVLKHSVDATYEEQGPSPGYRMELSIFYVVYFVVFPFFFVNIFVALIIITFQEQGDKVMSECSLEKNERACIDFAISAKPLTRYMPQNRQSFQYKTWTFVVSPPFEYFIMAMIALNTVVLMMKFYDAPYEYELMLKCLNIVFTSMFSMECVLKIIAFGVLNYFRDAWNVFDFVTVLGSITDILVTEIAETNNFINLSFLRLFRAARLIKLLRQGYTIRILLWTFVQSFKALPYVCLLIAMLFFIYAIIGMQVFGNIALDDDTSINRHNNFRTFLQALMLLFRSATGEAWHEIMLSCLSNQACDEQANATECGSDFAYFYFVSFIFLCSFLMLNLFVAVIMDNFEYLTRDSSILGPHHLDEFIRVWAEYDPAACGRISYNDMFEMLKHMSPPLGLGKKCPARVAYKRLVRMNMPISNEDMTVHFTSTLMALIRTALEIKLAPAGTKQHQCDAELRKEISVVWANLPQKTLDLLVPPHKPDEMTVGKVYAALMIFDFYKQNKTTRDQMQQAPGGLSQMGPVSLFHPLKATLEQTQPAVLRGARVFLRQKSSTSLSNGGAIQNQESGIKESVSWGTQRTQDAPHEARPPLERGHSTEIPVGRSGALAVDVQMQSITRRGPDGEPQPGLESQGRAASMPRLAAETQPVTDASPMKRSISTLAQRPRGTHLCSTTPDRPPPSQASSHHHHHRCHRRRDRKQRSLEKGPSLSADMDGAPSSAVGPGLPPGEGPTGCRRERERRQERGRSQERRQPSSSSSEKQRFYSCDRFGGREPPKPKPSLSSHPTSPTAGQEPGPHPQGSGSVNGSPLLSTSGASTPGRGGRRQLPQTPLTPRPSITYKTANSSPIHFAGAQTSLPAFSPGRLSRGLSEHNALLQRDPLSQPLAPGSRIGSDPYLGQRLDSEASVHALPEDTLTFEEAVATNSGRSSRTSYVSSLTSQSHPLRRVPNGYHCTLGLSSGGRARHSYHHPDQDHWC
T3 sequence (Q02410 whole entry): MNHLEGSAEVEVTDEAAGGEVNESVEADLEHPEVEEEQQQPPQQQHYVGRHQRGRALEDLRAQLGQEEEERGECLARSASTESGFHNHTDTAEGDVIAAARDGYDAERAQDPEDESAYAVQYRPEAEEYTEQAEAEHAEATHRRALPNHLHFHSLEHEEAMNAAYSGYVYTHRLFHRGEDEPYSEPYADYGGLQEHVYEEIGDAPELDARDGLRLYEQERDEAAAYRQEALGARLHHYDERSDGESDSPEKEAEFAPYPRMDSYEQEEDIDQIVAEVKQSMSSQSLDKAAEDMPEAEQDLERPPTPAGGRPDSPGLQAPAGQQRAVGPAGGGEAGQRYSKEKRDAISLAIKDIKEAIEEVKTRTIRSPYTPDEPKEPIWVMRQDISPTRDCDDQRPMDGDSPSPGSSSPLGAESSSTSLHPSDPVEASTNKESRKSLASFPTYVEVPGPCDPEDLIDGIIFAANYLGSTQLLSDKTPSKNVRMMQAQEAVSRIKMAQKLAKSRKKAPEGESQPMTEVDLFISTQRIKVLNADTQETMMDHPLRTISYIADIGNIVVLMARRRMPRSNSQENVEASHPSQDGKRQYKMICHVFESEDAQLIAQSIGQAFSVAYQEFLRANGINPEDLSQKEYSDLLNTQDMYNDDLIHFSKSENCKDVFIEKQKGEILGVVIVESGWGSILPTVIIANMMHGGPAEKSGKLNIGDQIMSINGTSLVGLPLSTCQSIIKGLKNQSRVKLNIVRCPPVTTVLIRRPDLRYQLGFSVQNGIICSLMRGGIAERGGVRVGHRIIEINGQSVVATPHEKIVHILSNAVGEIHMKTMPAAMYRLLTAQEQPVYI

Nonstructural protein 1 = Nonstructural protein 1 (Influenza A virus, UniProt Q194T2); type: functional, Influenza A virus (A/California/07/2009(H1N1))
Leucine aminopeptidase = molecular target: T4, Leucine aminopeptidase (Plasmodium falciparum 3D7, UniProt Q8IL11); test: P. falciparum M17LAP inhibitors, primary screen, biochemical, fluorogenic H-Leu-NHMec substrate, 1536-well (AID 1619); type: functional
T4 sequence (Q8IL11 whole entry): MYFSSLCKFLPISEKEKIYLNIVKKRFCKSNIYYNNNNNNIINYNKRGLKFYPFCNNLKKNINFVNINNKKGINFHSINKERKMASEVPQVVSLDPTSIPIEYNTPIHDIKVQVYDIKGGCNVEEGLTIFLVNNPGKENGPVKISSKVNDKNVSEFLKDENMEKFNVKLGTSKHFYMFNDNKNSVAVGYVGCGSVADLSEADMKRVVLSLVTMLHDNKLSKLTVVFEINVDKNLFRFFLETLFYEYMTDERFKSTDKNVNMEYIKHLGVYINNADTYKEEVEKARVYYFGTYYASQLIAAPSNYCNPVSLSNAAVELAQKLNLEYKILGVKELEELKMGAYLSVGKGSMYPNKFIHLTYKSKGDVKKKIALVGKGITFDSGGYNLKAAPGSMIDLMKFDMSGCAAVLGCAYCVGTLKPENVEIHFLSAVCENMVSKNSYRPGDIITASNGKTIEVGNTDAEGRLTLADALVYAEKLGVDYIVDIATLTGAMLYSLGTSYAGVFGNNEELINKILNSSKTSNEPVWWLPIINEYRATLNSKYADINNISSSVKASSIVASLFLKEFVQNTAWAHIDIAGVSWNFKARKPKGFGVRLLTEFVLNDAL

[9] = molecular target: T5, Replicative DNA helicase DnaB (Mycobacterium tuberculosis, UniProt P9WMR3); test: DnaB intein splicing inhibitors, dose response, biochemical, cell-free fluorescence (AID 449749); type: functional
T5 sequence (P9WMR3 whole entry): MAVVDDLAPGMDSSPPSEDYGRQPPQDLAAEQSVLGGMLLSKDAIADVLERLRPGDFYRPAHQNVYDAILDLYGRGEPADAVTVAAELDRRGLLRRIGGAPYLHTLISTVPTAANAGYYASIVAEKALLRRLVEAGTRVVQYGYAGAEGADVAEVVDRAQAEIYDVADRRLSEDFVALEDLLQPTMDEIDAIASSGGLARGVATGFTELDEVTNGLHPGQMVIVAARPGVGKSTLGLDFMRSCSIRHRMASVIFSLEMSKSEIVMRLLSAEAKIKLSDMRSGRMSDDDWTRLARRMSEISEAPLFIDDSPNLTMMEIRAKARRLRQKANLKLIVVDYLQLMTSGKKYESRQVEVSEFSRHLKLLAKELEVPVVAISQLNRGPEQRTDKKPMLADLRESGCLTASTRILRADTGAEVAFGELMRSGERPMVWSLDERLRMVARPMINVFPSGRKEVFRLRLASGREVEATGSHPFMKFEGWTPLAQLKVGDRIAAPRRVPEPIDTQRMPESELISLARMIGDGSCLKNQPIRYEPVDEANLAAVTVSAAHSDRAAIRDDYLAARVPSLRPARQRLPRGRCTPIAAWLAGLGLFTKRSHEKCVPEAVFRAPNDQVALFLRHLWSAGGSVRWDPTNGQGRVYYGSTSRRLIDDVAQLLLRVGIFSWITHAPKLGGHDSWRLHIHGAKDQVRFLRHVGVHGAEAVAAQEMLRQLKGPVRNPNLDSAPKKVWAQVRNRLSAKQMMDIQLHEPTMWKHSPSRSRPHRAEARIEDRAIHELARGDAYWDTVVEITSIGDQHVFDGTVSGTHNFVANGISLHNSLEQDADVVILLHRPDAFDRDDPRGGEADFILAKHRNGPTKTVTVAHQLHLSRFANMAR

Protein RecA = molecular target: T6, Protein RecA (Mycobacterium tuberculosis, UniProt P9WHJ3); test: Fluorescence Cell-Free Homogeneous Dose Retest to Identify Inhibitors of RecA-Intein Splicing Activity. [Related pubchem assays (depositor defined):AID2097, AID2223, AID489010, AID492950]; type: functional
T6 sequence (P9WHJ3 whole entry): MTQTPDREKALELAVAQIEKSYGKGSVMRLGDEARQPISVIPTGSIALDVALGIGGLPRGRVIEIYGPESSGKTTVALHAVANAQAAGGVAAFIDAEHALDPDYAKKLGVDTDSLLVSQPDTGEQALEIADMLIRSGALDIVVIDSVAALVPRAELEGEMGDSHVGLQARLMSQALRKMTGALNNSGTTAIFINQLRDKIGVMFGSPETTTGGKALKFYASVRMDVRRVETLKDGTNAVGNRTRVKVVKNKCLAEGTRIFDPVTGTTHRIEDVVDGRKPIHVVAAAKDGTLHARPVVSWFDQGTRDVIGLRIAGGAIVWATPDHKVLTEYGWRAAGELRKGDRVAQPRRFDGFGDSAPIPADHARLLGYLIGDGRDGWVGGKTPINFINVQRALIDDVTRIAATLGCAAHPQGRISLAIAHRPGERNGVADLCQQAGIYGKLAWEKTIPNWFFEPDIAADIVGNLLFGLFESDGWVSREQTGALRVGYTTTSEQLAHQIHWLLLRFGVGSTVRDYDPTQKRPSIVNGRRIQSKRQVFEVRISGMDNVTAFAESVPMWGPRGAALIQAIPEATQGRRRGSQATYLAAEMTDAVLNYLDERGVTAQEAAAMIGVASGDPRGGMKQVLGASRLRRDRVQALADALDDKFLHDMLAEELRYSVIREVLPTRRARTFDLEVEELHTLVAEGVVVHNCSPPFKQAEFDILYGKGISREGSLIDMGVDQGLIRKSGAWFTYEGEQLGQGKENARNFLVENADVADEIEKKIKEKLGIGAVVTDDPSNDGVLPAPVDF

Beta-galactosidase = Beta-galactosidase (Escherichia coli, UniProt Q8VNN2); test: detection-enzyme interference by beta-gal modulators – biochemical, E. coli enzyme, set 3, artefact control for CCR6 antagonist project, dose response (AID 504712); type: functional
Chain of Beta-galactosidase (Q8VNN2 whole entry, the tested form may be a part): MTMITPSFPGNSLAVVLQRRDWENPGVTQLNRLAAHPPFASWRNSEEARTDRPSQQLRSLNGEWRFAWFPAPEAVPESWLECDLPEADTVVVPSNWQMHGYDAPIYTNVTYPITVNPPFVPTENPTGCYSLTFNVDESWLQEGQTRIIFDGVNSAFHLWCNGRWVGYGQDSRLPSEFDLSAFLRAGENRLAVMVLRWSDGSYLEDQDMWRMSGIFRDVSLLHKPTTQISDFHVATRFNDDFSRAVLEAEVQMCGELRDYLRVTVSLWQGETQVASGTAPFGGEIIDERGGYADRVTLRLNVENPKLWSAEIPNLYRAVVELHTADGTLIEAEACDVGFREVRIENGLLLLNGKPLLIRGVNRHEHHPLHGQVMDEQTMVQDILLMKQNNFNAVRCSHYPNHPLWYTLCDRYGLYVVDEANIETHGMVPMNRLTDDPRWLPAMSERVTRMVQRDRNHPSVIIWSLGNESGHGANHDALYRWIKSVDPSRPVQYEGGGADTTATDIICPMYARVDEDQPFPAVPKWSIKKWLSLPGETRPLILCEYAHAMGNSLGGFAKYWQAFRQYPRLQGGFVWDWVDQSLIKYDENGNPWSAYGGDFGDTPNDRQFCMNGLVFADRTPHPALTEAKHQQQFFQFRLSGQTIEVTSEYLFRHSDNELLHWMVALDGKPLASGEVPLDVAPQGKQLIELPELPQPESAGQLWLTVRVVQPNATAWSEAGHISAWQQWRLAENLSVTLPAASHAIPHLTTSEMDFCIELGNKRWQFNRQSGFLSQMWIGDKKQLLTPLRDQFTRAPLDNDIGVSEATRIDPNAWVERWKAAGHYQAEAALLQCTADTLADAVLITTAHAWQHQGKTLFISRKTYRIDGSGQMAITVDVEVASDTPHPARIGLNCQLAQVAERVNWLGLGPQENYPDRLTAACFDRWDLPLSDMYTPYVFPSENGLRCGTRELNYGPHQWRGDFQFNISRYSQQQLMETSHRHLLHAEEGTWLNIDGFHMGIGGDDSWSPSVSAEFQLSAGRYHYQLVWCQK

[10] = CCR5-tropic HIV-1 fusion blockers – cell-based, CCR5-tropic Env, dose response (AID 2279); type: functional
[11] = molecular target: Eukaryotic translation initiation factor 4E (Mus musculus, UniProt P63073); test: blockers of eIF4G binding by eIF4E – biochemical, TR-FRET, dose response (AID 855); type: functional;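 further: potency for disrupting eIF4E binding to eIF4GI seen as loss of FRET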
Chain of Eukaryotic translation initiation factor 4E (P63073 whole entry): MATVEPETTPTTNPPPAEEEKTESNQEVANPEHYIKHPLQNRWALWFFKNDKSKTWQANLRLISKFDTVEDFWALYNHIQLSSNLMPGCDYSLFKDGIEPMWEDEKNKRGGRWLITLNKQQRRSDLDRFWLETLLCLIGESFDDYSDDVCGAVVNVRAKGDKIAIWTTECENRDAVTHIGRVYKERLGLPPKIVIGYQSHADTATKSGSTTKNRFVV

[12] = molecular target: T3, Voltage-gated N-type calcium channel alpha-1B subunit/Amyloid beta A4 precursor protein-binding family A member 1; type: protein assay; remark: listed apart in the source
Aminopeptidase N = Aminopeptidase N (Plasmodium falciparum FcB1/Columbia, UniProt O96935); test: malaria alanyl aminopeptidase activity blockers – biochemical, fluorogenic H-Leu-NHMec substrate, 1536-well (AID 1445); set-up: species or system Plasmodium falciparum 3D7, 3D7

Structure (SMILES): CCOC(=O)N1CCN(c2ccnc3cc(Cl)ccc23)CC1
- IC50 (Insulin-degrading enzyme): 18.9 µM (not active)
- IC50 [1]: 15.7 µM (not active)

Structure (SMILES): CN(c1ccc(C(=O)Nc2ccccc2Sc2ccccc2)cc1)S(C)(=O)=O
- CC50 [2]: > 40 µM (active)

Structure (SMILES): CC(=O)OCC1OC(C#Cc2ccc(F)cc2F)C=CC1OC(C)=O (centres undefined)
- AC50 (Cytochrome P450 2D6): 6.31 µM (inconclusive)

Structure (SMILES): COc1cnc(-c2ccccn2)nc1Sc1ccc(C)cc1
- IC50 [3]: 6.95 µM (active)
- IC50 [4]: > 67 µM (not active)
- AC50 (INS1): 5.03 µM (active)

Structure (SMILES): Cc1c(OC(C)C(=O)NCc2ccncc2)ccc2c3c(c(=O)oc12)CCCC3 (centres undefined)
- IC50 (Insulin-degrading enzyme): > 55.9 µM (not active)
- IC50 [1]: 15.5 µM (not active)

Structure (SMILES): CC1=C([N+](=O)[O-])C(c2ccc(O)c(O)c2)NC(=O)N1 (centres undefined)
- IC50 (Aspartyl aminopeptidase): 0.864 µM (active)
- IC50 (Procathepsin L): > 59.6 µM (not active)

Structure (SMILES): O=C(O)c1ccc(N2C(=O)/C(=C/c3ccc(-c4ccc([N+](=O)[O-])cc4)o3)C=C2c2ccccc2)cc1
- IC50 [5]: < 0.5 µM (active)
- IC50 [6]: 0.417 µM (active)
- CC50 [7]: 15.8 µM (active)
- IC50 [8]: 5.56 µM (active)
- IC50 (Nonstructural protein 1): 6.04 µM (active)
- IC50 (Leucine aminopeptidase): 21.4 µM (active)
- AC50 [9]: 56.7 µM (active)
- EC50 (Protein RecA): > 380 µM (inactive)
- IC50 (Beta-galactosidase): 33.8 µM (active)
- IC50 [10]: > 50 µM (active)
- IC50 [11]: 9.86 µM (active) and 3.93 µM (active)
- IC50 [12]: > 50 µM (inactive)

Structure (SMILES): C[C@H](CCC(=O)O)[C@H]1CC[C@H]2[C@@H]3[C@@H](O)C[C@@H]4C[C@H](O)CC[C@]4(C)[C@H]3CC[C@]12C [URSODIOL]
- IC50 (Aminopeptidase N): 2.6 µM (active)

From ChEMBL document CHEMBL1201862, “PubChem BioAssay data set” (2004)
